Results reported in patent US20130022629A1, “Modulators of Immunoinhibitory Receptor PD-1, and Methods of Use Thereof” (priority 2010, published 2013).
“Also recorded” adds a separate entry of the source.

Columns and labels:
[1] = target: T1, PD-1 (Mus musculus, UniProt Q02242); assay: Primary screen: IFN-γ production by PD-1^C T cells with plate-bound anti-CD3 plus PD-L2Ig or control Ig; assay type: cell-based; conditions: compared with negative control wells on the plate (FIG. 2)
T1 construct: expressed in transfected cells; host or cells: CD4 T cells purified from spleens of PD-1^C transgenic mice (transgene-driven constitutive PD-1)
T1 sequence (Q02242 25-288): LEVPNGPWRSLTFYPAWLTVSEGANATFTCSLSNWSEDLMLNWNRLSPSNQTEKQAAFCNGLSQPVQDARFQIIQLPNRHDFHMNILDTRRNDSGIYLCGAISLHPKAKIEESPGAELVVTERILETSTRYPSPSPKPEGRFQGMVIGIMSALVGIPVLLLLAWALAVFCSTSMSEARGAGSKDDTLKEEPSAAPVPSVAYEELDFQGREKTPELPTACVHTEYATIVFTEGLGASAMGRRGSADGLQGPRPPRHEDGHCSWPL
Description: In certain embodiments, PD-1^C T cells are cultured with a proliferative stimulus (anti-CD3) plus either PD-L2-Ig or a negative control Ig fusion protein. PD-1^C T cells proliferate less and produce lower amounts of cytokines when cultured with PD-L2-Ig as compared to the negative control Ig fusion protein because PD-1-ligands deliver an inhibitory signal through PD-1. Compounds of interest will modulate this inhibitory interaction in wild type and PD-1^C T cells, but not in PD-1^−/− cells. Thus, compounds which are antagonists will block PD-1 inhibitory function and lead to increased T cell responses by wild type and PD-1^C T cells, but will not affect PD-1^−/− T cells. Conversely, compounds which are agonists will deliver an inhibitory signal, and reduce T cell responses by wild type and PD-1^C T cells, but not PD-1^−/− T cells.
Because it is believed that PD-1 can inhibit cytokine (IFN-γ) production to a greater extent than T cell proliferation in a number of situations (36, 44), in certain embodiments IFN-γ production was chosen as the readout, using a bead-based fluorescent ELISA assay. These beads have a broad dynamic range (about 1 pg/mL to about 5 ng/mL), robust detection of cytokines from complex solutions (including culture media), minimal time requirement (about 3 hours from start to finish), and homogeneous format (no washing required). […]

[2] = target: T1, PD-1; assay: Validation (secondary screen): rescue of PD-1 mediated inhibition of IFN-γ production in PD-1^C (Tg) T cells; assay type: cell-based; conditions: PD-L2Ig versus control Ig (FIG. 3)
From the text: (§1) In vitro assays to test for compounds that interfere with the PD-1 function have been developed. These assays utilize unique mouse strains to specifically identify PD-1-specific effects. For example, a transgenic mouse that constitutively expresses PD-1 on T cells (PD-1^C) has been developed (43). It has recently been disclosed that PD-1^C T cells are very susceptible to signaling through PD-1, as measured by a decrease in T cell proliferation and cytokine production. These PD-1^C T cells can be used to assess the functional effects of small molecules. A PD-1 deficient mouse (PD-1^−/−) has also been developed (44), and T cells from such mice will serve as useful controls for in vitro as well as in vivo studies.
In certain embodiments, PD-1^C T cells are cultured with a proliferative stimulus (anti-CD3) plus either PD-L2-Ig or a negative control Ig fusion protein. […]
The specificity of the effects of sulfamonomethoxine and sulfamethizole were assessed by comparing responses of wild type, PD-1^c, and PD-1^−/− T cells. The effects of sulfamonomethoxine and sulfamethizole were evaluated over a range of compound concentrations (dilution series from 16 nM to 80 μM) and analyzed their effects on T cell proliferation and cytokine production. […]

[3] = test system: PD-1^−/− T cells; assay: Specificity control: responses of PD-1^−/− (KO) T cells to compound; assay type: cell-based, mouse; conditions: PD-1^−/− T cells over the range of compound concentrations (FIG. 3)
From the text: as §1, with “studies. In certain embodiments, PD-1^C T cells are cultured with a proliferative stimulus (anti-CD3) plus either PD-L2-Ig or a negative control Ig fusion protein. […] The specificity of the effects of sulfamonomethoxine and sulfamethizole were assessed by comparing responses of wild type, PD-1^c, and PD-1^−/− T cells. The effects of sulfamonomethoxine and sulfamethizole were evaluated over a range of compound concentrations (dilution series from 16 nM to 80 μM) and analyzed their effects on T cell proliferation and cytokine production. […]” for “studies.”

| Structure (SMILES) | rescue of IFN-γ production in the primary screen [1] | specificity: rescue/block of PD-1 mediated inhibition in PD-1 Tg cells [2] | effect on PD-1 KO T cells [3] |
| --- | --- | --- | --- |
| Cc1nnc(NS(=O)(=O)c2ccc(N)cc2)s1 [sulfamethizole] | rescue of IFN-γ production above the negative control wells | block of PD-1 mediated inhibition in PD-1 Tg cells only when PD-L2 was present; also recorded: rescue of PD-1 mediated inhibition in PD-1 Tg cells only when PD-L2 was present | no effect |
| COc1cc(NS(=O)(=O)c2ccc(N)cc2)ncn1 [sulfamonomethoxine] | rescue of IFN-γ production above the negative control wells | block of PD-1 mediated inhibition in PD-1 Tg cells only when PD-L2 was present; also recorded: rescue of PD-1 mediated inhibition in PD-1 Tg cells only when PD-L2 was present | no effect |
